Calls of active or inactive are those of the source. For most assays here, no stated cut-off is given here; in the data, actives have a measured Kd and inactives only a lower limit.
Legend:
Adenosine kinase = Adenosine kinase (Homo sapiens, UniProt P55263)
[1] = molecular target: Serine/threonine-protein kinase B-raf (Homo sapiens, UniProt P15056)
[2] = molecular target: Calcium/calmodulin-dependent protein kinase kinase 2 (Homo sapiens, UniProt Q96RR4)
Ephrin type-A receptor 2 = Ephrin type-A receptor 2 (Homo sapiens, UniProt P29317)
Chain of Ephrin type-A receptor 2 (P29317 whole entry): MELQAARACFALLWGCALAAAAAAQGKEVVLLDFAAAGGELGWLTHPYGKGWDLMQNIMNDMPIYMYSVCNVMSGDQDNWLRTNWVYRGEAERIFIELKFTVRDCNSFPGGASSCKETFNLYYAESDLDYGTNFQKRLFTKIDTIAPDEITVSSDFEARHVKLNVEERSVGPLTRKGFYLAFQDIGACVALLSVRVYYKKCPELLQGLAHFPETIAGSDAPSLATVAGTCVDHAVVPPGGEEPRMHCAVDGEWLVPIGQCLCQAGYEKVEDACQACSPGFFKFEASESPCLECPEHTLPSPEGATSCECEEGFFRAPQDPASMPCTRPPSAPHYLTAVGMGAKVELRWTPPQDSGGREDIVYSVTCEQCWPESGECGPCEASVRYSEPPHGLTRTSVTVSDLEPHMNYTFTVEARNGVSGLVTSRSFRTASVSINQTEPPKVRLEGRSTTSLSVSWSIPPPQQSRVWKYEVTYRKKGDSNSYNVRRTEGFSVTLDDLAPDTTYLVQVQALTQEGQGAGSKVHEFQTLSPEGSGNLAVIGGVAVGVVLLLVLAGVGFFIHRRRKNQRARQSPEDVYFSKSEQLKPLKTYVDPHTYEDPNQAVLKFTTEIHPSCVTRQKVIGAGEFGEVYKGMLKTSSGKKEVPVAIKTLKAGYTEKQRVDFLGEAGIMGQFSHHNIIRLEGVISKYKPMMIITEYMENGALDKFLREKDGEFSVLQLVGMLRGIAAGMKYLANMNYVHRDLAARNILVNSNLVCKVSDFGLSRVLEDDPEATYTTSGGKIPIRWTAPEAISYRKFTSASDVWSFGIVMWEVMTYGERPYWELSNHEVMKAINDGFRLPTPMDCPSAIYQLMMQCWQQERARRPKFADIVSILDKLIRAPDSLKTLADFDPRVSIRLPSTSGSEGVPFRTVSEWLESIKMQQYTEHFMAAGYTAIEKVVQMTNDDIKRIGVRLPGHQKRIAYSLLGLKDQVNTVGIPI

Ephrin type-A receptor 4 = Ephrin type-A receptor 4 (Homo sapiens, UniProt P54764)
Chain of Ephrin type-A receptor 4 (P54764 whole entry): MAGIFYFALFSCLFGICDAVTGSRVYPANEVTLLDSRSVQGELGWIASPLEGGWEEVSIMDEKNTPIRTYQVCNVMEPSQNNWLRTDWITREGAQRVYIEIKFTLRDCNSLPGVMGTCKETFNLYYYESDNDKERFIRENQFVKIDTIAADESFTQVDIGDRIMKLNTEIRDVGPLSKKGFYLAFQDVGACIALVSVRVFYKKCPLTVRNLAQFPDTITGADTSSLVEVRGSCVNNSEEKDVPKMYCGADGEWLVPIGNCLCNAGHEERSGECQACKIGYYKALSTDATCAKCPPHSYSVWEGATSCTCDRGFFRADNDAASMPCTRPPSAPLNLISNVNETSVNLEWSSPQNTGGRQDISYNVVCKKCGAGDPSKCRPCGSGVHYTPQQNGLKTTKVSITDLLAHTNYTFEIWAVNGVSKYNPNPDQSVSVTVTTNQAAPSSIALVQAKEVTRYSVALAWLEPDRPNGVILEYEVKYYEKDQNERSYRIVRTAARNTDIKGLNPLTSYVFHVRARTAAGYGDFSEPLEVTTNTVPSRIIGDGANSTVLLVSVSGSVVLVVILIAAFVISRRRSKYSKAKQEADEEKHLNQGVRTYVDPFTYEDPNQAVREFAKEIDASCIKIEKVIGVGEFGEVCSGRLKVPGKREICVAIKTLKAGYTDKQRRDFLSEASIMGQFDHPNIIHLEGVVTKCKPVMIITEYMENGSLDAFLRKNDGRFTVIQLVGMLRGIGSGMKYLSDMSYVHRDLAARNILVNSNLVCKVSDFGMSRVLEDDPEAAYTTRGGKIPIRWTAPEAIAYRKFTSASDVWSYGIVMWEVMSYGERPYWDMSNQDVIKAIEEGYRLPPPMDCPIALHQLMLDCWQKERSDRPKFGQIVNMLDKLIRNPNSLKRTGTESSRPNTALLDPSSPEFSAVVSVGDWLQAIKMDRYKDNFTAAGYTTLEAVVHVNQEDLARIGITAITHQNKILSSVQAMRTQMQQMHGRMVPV

[3] = molecular target: T1, Dual specificity mitogen-activated protein kinase kinase 5 (Homo sapiens, UniProt Q13163)
T1 sequence (Q13163 whole entry): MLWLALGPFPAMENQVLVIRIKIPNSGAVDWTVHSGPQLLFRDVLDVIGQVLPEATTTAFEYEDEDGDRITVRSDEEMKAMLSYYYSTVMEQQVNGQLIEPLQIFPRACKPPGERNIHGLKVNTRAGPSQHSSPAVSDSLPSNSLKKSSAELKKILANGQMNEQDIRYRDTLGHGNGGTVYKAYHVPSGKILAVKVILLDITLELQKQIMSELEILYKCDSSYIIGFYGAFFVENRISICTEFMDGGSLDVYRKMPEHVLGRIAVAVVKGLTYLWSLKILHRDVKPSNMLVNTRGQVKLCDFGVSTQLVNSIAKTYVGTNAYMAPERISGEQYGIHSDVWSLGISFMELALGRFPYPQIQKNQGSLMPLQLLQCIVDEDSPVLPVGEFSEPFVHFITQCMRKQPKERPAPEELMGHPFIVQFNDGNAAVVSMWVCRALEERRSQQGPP

[4] = molecular target: Mitogen-activated protein kinase kinase kinase 4 (Homo sapiens, UniProt Q9Y6R4)
[5] = molecular target: T2, RNA cytidine acetyltransferase (Homo sapiens, UniProt Q9H0A0)
T2 sequence (Q9H0A0 whole entry): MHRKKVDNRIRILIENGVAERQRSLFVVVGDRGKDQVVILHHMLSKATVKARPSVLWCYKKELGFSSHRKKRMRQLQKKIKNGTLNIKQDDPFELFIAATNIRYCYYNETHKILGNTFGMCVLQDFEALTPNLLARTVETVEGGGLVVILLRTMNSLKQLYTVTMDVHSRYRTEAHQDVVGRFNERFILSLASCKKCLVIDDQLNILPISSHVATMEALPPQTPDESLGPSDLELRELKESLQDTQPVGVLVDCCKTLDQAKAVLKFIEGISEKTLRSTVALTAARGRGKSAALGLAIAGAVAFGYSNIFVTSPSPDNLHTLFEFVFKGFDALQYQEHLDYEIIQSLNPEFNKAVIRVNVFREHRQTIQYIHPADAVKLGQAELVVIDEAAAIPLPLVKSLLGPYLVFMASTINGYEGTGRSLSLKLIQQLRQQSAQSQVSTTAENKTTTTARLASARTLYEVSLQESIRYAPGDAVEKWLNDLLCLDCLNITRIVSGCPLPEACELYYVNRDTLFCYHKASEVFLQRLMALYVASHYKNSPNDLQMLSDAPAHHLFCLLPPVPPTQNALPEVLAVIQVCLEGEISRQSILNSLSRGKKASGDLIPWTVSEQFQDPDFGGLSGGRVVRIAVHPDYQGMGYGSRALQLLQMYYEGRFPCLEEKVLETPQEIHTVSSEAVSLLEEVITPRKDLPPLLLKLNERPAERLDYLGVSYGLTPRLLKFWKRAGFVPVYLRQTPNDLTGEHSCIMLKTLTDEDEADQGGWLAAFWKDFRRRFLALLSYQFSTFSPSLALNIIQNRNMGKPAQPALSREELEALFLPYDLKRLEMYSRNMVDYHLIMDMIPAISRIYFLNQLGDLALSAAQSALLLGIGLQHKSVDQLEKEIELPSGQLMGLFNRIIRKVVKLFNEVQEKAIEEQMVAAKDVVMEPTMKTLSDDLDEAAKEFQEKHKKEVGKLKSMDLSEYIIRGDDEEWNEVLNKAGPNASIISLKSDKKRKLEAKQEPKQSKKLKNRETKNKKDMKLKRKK

[6] = molecular target: Serine/threonine-protein kinase PAK 2 (Homo sapiens, UniProt Q13177)
[7] = molecular target: cAMP-dependent protein kinase catalytic subunit beta (Homo sapiens, UniProt P22694)
[8] = molecular target: Ribosomal protein S6 kinase alpha-6 (Homo sapiens, UniProt Q9UK32)
Chain of Ribosomal protein S6 kinase alpha-6 (Q9UK32 whole entry): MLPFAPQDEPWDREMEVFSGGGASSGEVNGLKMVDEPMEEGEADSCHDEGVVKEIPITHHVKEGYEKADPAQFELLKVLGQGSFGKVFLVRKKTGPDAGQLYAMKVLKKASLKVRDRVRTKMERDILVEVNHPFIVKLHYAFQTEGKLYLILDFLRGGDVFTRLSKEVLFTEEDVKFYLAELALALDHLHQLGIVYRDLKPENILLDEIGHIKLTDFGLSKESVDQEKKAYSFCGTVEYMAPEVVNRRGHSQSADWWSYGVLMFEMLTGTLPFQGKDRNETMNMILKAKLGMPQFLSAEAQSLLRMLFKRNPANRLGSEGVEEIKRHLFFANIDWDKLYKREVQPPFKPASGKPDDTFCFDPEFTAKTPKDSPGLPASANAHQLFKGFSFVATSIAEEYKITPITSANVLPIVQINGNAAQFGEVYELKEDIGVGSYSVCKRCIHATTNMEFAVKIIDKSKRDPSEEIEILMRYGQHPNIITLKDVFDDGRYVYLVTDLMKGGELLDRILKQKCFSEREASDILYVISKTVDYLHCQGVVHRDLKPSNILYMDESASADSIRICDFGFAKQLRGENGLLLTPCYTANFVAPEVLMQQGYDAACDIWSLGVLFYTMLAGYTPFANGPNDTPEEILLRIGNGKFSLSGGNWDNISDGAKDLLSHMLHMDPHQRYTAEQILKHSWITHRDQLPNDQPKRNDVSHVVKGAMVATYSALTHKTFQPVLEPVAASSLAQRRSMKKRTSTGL

[9] = molecular target: Serine/threonine-protein kinase 16 (Homo sapiens, UniProt O75716)
Chain of Serine/threonine-protein kinase 16 (O75716 whole entry): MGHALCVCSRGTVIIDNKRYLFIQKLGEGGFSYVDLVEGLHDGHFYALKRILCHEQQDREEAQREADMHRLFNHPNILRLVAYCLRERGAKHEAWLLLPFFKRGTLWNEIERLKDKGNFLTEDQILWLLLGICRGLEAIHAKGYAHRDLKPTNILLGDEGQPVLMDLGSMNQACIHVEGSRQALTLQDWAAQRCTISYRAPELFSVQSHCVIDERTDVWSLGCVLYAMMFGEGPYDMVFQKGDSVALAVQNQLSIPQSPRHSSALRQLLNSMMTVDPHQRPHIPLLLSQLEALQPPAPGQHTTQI

[10] = molecular target: T3, Serine/threonine-protein kinase TAO3 (Homo sapiens, UniProt Q9H2K8)
T3 sequence (Q9H2K8 whole entry): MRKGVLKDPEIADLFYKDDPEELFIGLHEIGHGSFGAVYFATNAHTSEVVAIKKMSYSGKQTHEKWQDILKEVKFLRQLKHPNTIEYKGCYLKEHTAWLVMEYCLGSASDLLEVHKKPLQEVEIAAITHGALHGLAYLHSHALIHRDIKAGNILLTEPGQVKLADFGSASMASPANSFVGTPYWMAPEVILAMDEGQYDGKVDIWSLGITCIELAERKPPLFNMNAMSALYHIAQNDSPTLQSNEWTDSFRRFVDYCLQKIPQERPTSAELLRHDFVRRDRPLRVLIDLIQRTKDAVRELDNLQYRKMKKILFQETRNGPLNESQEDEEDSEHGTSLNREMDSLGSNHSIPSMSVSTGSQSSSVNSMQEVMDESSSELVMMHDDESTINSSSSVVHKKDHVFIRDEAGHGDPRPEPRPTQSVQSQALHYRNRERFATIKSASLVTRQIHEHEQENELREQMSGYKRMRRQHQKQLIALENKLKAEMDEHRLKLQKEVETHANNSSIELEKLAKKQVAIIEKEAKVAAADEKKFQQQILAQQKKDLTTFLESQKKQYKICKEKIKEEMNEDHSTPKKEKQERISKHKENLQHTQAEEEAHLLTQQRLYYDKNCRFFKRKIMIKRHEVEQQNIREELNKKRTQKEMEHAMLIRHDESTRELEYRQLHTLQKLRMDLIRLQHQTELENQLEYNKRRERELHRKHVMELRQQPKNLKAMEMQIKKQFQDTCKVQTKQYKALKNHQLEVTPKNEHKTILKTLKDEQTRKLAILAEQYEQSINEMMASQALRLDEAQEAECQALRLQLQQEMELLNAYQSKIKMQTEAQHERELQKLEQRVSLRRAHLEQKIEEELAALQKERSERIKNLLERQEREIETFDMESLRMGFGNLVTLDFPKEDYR

Activated CDC42 kinase 1 = Activated CDC42 kinase 1 (Homo sapiens, UniProt Q07912)
Chain of Activated CDC42 kinase 1 (Q07912 whole entry): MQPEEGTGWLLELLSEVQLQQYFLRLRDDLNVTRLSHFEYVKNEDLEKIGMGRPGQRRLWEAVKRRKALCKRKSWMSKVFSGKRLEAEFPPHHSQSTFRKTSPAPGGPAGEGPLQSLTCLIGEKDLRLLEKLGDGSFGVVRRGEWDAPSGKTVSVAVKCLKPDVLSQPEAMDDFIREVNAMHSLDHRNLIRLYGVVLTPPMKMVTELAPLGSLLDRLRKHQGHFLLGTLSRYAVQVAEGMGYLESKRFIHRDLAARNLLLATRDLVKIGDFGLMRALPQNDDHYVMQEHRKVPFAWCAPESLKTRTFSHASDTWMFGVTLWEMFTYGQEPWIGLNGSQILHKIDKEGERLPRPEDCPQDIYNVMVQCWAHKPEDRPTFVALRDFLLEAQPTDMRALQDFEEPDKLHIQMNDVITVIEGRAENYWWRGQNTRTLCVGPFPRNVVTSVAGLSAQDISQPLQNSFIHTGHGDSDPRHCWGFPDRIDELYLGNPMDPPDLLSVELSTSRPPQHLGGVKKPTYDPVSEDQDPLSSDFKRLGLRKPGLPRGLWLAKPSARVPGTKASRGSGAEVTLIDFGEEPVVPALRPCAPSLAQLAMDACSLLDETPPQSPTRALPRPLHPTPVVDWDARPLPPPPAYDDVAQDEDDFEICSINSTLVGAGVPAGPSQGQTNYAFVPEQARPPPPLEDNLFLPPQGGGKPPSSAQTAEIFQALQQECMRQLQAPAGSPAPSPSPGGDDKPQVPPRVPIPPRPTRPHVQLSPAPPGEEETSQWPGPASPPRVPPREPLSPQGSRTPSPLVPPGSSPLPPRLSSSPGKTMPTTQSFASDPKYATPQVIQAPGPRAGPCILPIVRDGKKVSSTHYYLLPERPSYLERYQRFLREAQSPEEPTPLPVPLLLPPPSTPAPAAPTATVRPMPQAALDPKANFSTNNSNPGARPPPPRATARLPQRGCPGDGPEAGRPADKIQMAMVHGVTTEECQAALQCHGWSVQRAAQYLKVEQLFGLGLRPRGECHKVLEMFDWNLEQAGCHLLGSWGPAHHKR

Chain of Adenosine kinase (P55263 whole entry): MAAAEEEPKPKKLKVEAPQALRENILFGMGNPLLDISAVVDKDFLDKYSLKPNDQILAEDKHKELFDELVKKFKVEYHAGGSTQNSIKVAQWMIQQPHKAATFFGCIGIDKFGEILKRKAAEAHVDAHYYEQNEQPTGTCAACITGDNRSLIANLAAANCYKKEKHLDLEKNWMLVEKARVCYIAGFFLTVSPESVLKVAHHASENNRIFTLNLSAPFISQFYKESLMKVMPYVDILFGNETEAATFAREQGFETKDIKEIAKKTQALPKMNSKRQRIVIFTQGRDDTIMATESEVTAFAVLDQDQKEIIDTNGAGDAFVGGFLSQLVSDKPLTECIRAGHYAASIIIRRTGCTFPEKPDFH
Chain of Calcium/calmodulin-dependent protein kinase kinase 2 (Q96RR4 whole entry): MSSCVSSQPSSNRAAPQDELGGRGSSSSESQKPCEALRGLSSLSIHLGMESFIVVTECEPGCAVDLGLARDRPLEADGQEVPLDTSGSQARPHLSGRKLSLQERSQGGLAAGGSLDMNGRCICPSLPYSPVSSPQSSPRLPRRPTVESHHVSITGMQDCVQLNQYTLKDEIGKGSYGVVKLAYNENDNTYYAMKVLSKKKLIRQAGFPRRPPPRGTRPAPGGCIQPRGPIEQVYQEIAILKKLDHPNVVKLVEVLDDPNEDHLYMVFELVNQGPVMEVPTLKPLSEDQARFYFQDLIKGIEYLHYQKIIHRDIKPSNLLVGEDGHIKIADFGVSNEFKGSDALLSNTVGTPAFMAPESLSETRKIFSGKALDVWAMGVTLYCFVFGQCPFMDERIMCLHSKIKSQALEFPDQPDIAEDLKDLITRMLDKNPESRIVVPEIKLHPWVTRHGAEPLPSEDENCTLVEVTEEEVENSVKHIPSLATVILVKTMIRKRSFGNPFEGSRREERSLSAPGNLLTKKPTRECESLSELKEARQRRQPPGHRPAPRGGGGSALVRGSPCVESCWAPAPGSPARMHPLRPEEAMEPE

Kd (Adenosine kinase) | Kd [1] | Kd [2] | Kd (Ephrin type-A receptor 2) | Kd (Ephrin type-A receptor 4) | Kd [3] | Kd [4] | Kd [5] | Kd [6] | Kd [7] | Kd [8] | Kd [9] | Kd [10] | Kd (Activated CDC42 kinase 1) | Compound
> 30 µM (inactive) | > 30 µM (inactive) | > 30 µM (inactive) | > 30 µM (inactive) | > 30 µM (inactive) | > 30 µM (inactive) | > 30 µM (inactive) | > 30 µM (inactive) | > 30 µM (inactive) | > 30 µM (inactive) | > 30 µM (inactive) | > 30 µM (inactive) | > 30 µM (inactive) | > 30 µM (inactive) | CN(C)C(=O)c1cc2cnc(Nc3ccc(N4CCNCC4)cn3)nc2n1C1CCCC1 [RIBOCICLIB]
> 30 µM (inactive) | > 30 µM (inactive) | > 30 µM (inactive) | > 30 µM (inactive) | > 30 µM (inactive) | > 30 µM (inactive) | > 30 µM (inactive) | > 30 µM (inactive) | > 30 µM (inactive) | > 30 µM (inactive) | > 30 µM (inactive) | > 30 µM (inactive) | > 30 µM (inactive) | > 30 µM (inactive) | Cc1cc2c(F)c(Oc3ncnn4cc(OC[C@@H](C)OC(=O)[C@H](C)N)c(C)c34)ccc2[nH]1 [BRIVANIB ALANINATE]

Compound | Kd (Adenosine kinase) | Kd [1] | Kd [2] | Kd (Ephrin type-A receptor 2) | Kd (Ephrin type-A receptor 4) | Kd [3] | Kd [4] | Kd [5] | Kd [6] | Kd [7] | Kd [8] | Kd [9] | Kd [10] | Kd (Activated CDC42 kinase 1)
Cc1ccc(-n2nc(C(C)(C)C)cc2NC(=O)NCc2cc(F)ccc2Oc2ccc3c(cnn3CCO)c2)cc1 [PEXMETINIB] | > 30 µM (inactive) | 5.23 µM (active) | > 30 µM (inactive) | 2.56 µM (active) | > 30 µM (inactive) | > 30 µM (inactive) | > 30 µM (inactive) | > 30 µM (inactive) | > 30 µM (inactive) | > 30 µM (inactive) | > 30 µM (inactive) | > 30 µM (inactive) | > 30 µM (inactive) | > 30 µM (inactive)
